Numbers after ± are expanded uncertainties.
What was measured:
[1] = Crystal; DTA
[2] = Molar enthalpy of transition or fusion; conditions: Crystal; DSC

For Clc1ccccc1Cl [1,2-dichlorobenzene], the Normal melting temperature [1] was -17.30 ± 0.5 °C and the “Molar enthalpy of transition or fusion” value [2] was 3.13 ± 0.0789 kcal/mol.
For Clc1cccc(Cl)c1 [1,3-dichlorobenzene], the Normal melting temperature [1] was -24.90 ± 0.5 °C and the “Molar enthalpy of transition or fusion” value [2] was 2.99 ± 0.0765 kcal/mol.
For Clc1ccc(Cl)cc1 [1,4-dichlorobenzene], the Normal melting temperature [1] was 53.00 ± 0.5 °C and the “Molar enthalpy of transition or fusion” value [2] was 4.32 ± 0.103 kcal/mol.
For c1ccc2c(c1)ccc1ccccc12 [phenanthrene], the Normal melting temperature [1] was 98.90 ± 0.5 °C and the “Molar enthalpy of transition or fusion” value [2] was 3.99 ± 0.0956 kcal/mol.

— the NIST ThermoML archive (doi:10.1016/j.tca.2008.09.010)
